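A five-concentration, 48-hour dose response in 96-well plates underlies each endpoint, interpolated linearly between surrounding concentrations. TGI: total growth inhibition.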
How the values were obtained:
Assay in all cases: NCI tumour cell line growth inhibition, 48 h
HCT-15 colon = tested on: HCT-15 colon
HS 578T breast = tested on: HS 578T breast
SF-268 CNS = tested on: SF-268 CNS
KM12 colon = tested on: KM12 colon
SNB-75 CNS = tested on: SNB-75 CNS
SF-539 CNS = tested on: SF-539 CNS
SK-OV-3 ovarian = tested on: SK-OV-3 ovarian
OVCAR-5 ovarian = tested on: OVCAR-5 ovarian
MDA-MB-435 = tested on: MDA-MB-435
NCI-H23 lung = tested on: NCI-H23 lung
NCI-H460 lung = tested on: NCI-H460 lung
OVCAR-3 ovarian = tested on: OVCAR-3 ovarian
BT-549 breast = tested on: BT-549 breast
UACC-257 melanoma = tested on: UACC-257 melanoma
SNB-19 CNS = tested on: SNB-19 CNS
DU-145 prostate = tested on: DU-145 prostate
CCRF-CEM leukemia = tested on: CCRF-CEM leukemia
ACHN renal = tested on: ACHN renal
EKVX NSCLC = tested on: EKVX NSCLC
MCF7 breast = tested on: MCF7 breast
SK-MEL-28 melanoma = tested on: SK-MEL-28 melanoma
K-562 leukemia = tested on: K-562 leukemia
COLO 205 colon = tested on: COLO 205 colon
SK-MEL-5 melanoma = tested on: SK-MEL-5 melanoma
A549 NSCLC = tested on: A549 NSCLC
UACC-62 melanoma = tested on: UACC-62 melanoma
M14 melanoma = tested on: M14 melanoma
OVCAR-8 ovarian = tested on: OVCAR-8 ovarian
UO-31 renal = tested on: UO-31 renal
SW-620 colon = tested on: SW-620 colon
MDA-N = tested on: MDA-N
HCT-116 colon = tested on: HCT-116 colon
RPMI-8226 leukemia = tested on: RPMI-8226 leukemia
HOP-62 NSCLC = tested on: HOP-62 NSCLC
SF-295 CNS = tested on: SF-295 CNS
HCC-2998 colon = tested on: HCC-2998 colon
MDA-MB-231 breast = tested on: MDA-MB-231 breast
PC-3 prostate = tested on: PC-3 prostate
MALME-3M melanoma = tested on: MALME-3M melanoma
SN12C renal = tested on: SN12C renal
T-47D breast = tested on: T-47D breast
RXF 393 renal = tested on: RXF 393 renal
LOX IMVI melanoma = tested on: LOX IMVI melanoma
OVCAR-4 ovarian = tested on: OVCAR-4 ovarian
U251 CNS = tested on: U251 CNS
CAKI-1 renal = tested on: CAKI-1 renal
SK-MEL-2 melanoma = tested on: SK-MEL-2 melanoma
TK-10 renal = tested on: TK-10 renal
786-0 renal = tested on: 786-0 renal
IGROV1 ovarian = tested on: IGROV1 ovarian
HT29 colon = tested on: HT29 colon
SR leukemia = tested on: SR leukemia
NCI/ADR-RES ovarian = tested on: NCI/ADR-RES ovarian
MOLT-4 leukemia = tested on: MOLT-4 leukemia
HL-60(TB) leukemia = tested on: HL-60(TB) leukemia
NCI-H522 lung = tested on: NCI-H522 lung
A498 renal = tested on: A498 renal
NCI-H226 lung = tested on: NCI-H226 lung
HOP-92 NSCLC = tested on: HOP-92 NSCLC

## NC(C(F)(F)F)(C(F)(F)F)P(=O)(Cc1ccccc1)Cc1ccccc1
HCT-15 colon
  TGI: > 100 µM
HS 578T breast
  TGI: > 100 µM
SF-268 CNS
  TGI: > 100 µM
KM12 colon
  TGI: > 100 µM
SNB-75 CNS
  TGI: > 100 µM
SF-539 CNS
  TGI: > 100 µM
SK-OV-3 ovarian
  TGI: > 100 µM
OVCAR-5 ovarian
  TGI: > 100 µM
MDA-MB-435
  TGI: > 100 µM
NCI-H23 lung
  TGI: > 100 µM
NCI-H460 lung
  TGI: > 100 µM
OVCAR-3 ovarian
  TGI: > 100 µM
BT-549 breast
  TGI: > 100 µM
UACC-257 melanoma
  TGI: > 100 µM
SNB-19 CNS
  TGI: > 100 µM
DU-145 prostate
  TGI: > 100 µM
CCRF-CEM leukemia
  TGI: > 100 µM
ACHN renal
  TGI: > 100 µM
EKVX NSCLC
  TGI: > 100 µM
MCF7 breast
  TGI: > 100 µM
SK-MEL-28 melanoma
  TGI: > 100 µM
K-562 leukemia
  TGI: > 100 µM
COLO 205 colon
  TGI: > 100 µM
SK-MEL-5 melanoma
  TGI: > 100 µM
A549 NSCLC
  TGI: > 100 µM
UACC-62 melanoma
  TGI: > 100 µM
M14 melanoma
  TGI: > 100 µM
OVCAR-8 ovarian
  TGI: > 100 µM
UO-31 renal
  TGI: > 100 µM
SW-620 colon
  TGI: > 100 µM
MDA-N
  TGI: > 100 µM
HCT-116 colon
  TGI: > 100 µM
RPMI-8226 leukemia
  TGI: > 100 µM
HOP-62 NSCLC
  TGI: > 100 µM
SF-295 CNS
  TGI: > 100 µM
HCC-2998 colon
  TGI: > 100 µM
MDA-MB-231 breast
  TGI: > 100 µM
PC-3 prostate
  TGI: > 100 µM
MALME-3M melanoma
  TGI: > 100 µM
SN12C renal
  TGI: > 100 µM
T-47D breast
  TGI: > 100 µM
RXF 393 renal
  TGI: > 100 µM
LOX IMVI melanoma
  TGI: > 100 µM
OVCAR-4 ovarian
  TGI: > 100 µM
U251 CNS
  TGI: > 100 µM
CAKI-1 renal
  TGI: > 100 µM
SK-MEL-2 melanoma
  TGI: > 100 µM
TK-10 renal
  TGI: > 100 µM
786-0 renal
  TGI: > 100 µM
IGROV1 ovarian
  TGI: > 100 µM
HT29 colon
  TGI: > 100 µM
SR leukemia
  TGI: > 100 µM
NCI/ADR-RES ovarian
  TGI: > 100 µM
MOLT-4 leukemia
  TGI: > 100 µM
HL-60(TB) leukemia
  TGI: > 100 µM

## O=C(O)Cn1ccc(=O)c2ccc([N+](=O)[O-])cc21
HCT-15 colon
  TGI: > 100 µM
HS 578T breast
  TGI: > 100 µM
SF-268 CNS
  TGI: > 100 µM
KM12 colon
  TGI: > 100 µM
SNB-75 CNS
  TGI: > 100 µM
SF-539 CNS
  TGI: > 100 µM
SK-OV-3 ovarian
  TGI: > 100 µM
OVCAR-5 ovarian
  TGI: > 100 µM
MDA-MB-435
  TGI: > 100 µM
NCI-H23 lung
  TGI: > 100 µM
NCI-H460 lung
  TGI: > 100 µM
OVCAR-3 ovarian
  TGI: > 100 µM
BT-549 breast
  TGI: > 100 µM
UACC-257 melanoma
  TGI: > 100 µM
SNB-19 CNS
  TGI: > 100 µM
DU-145 prostate
  TGI: > 100 µM
CCRF-CEM leukemia
  TGI: > 100 µM
ACHN renal
  TGI: > 100 µM
MCF7 breast
  TGI: > 100 µM
SK-MEL-28 melanoma
  TGI: > 100 µM
K-562 leukemia
  TGI: > 100 µM
COLO 205 colon
  TGI: > 100 µM
SK-MEL-5 melanoma
  TGI: > 100 µM
NCI-H522 lung
  TGI: > 100 µM
A549 NSCLC
  TGI: > 100 µM
UACC-62 melanoma
  TGI: > 100 µM
M14 melanoma
  TGI: > 100 µM
OVCAR-8 ovarian
  TGI: > 100 µM
A498 renal
  TGI: > 100 µM
UO-31 renal
  TGI: > 100 µM
SW-620 colon
  TGI: > 100 µM
MDA-N
  TGI: > 100 µM
HCT-116 colon
  TGI: > 100 µM
HOP-62 NSCLC
  TGI: > 100 µM
SF-295 CNS
  TGI: > 100 µM
HCC-2998 colon
  TGI: > 100 µM
MDA-MB-231 breast
  TGI: 78.5 µM
PC-3 prostate
  TGI: > 100 µM
MALME-3M melanoma
  TGI: > 100 µM
SN12C renal
  TGI: > 100 µM
NCI-H226 lung
  TGI: > 100 µM
T-47D breast
  TGI: > 100 µM
U251 CNS
  TGI: > 100 µM
CAKI-1 renal
  TGI: > 100 µM
SK-MEL-2 melanoma
  TGI: > 100 µM
TK-10 renal
  TGI: > 100 µM
786-0 renal
  TGI: > 100 µM
IGROV1 ovarian
  TGI: > 100 µM
HT29 colon
  TGI: > 100 µM
SR leukemia
  TGI: > 100 µM
NCI/ADR-RES ovarian
  TGI: > 100 µM
MOLT-4 leukemia
  TGI: > 100 µM
HL-60(TB) leukemia
  TGI: > 100 µM

## NCC1CCN(c2nc3ccccc3c3c2CCCC3)CC1
HCT-15 colon
  TGI: 14.9 µM
HS 578T breast
  TGI: > 100 µM
SF-268 CNS
  TGI: 22.7 µM
KM12 colon
  TGI: 15.9 µM
SNB-75 CNS
  TGI: 22.2 µM
SF-539 CNS
  TGI: 11.3 µM
SK-OV-3 ovarian
  TGI: 29.6 µM
OVCAR-5 ovarian
  TGI: 24.7 µM
MDA-MB-435
  TGI: 7.13 µM
NCI-H23 lung
  TGI: 30.1 µM
NCI-H460 lung
  TGI: 17.6 µM
OVCAR-3 ovarian
  TGI: 24.9 µM
BT-549 breast
  TGI: 28 µM
UACC-257 melanoma
  TGI: 6.84 µM
SNB-19 CNS
  TGI: 24.3 µM
DU-145 prostate
  TGI: 25.9 µM
CCRF-CEM leukemia
  TGI: 14.2 µM
ACHN renal
  TGI: 25.3 µM
EKVX NSCLC
  TGI: 27.7 µM
MCF7 breast
  TGI: 15 µM
SK-MEL-28 melanoma
  TGI: 12 µM
K-562 leukemia
  TGI: 8.07 µM
COLO 205 colon
  TGI: 3.13 µM
SK-MEL-5 melanoma
  TGI: 7.62 µM
NCI-H522 lung
  TGI: 19.8 µM
A549 NSCLC
  TGI: 24.9 µM
UACC-62 melanoma
  TGI: 4.96 µM
M14 melanoma
  TGI: 3.71 µM
OVCAR-8 ovarian
  TGI: 42.9 µM
A498 renal
  TGI: 25.7 µM
UO-31 renal
  TGI: 11.9 µM
SW-620 colon
  TGI: 9.34 µM
MDA-N
  TGI: 7.92 µM
HCT-116 colon
  TGI: 9.91 µM
RPMI-8226 leukemia
  TGI: 6.3 µM
HOP-62 NSCLC
  TGI: 32.1 µM
SF-295 CNS
  TGI: 26.7 µM
HCC-2998 colon
  TGI: 3.46 µM
MDA-MB-231 breast
  TGI: 17.2 µM
PC-3 prostate
  TGI: 22.5 µM
MALME-3M melanoma
  TGI: 26 µM
SN12C renal
  TGI: 22.4 µM
NCI-H226 lung
  TGI: 34.1 µM
T-47D breast
  TGI: 8.81 µM
RXF 393 renal
  TGI: 11.7 µM
LOX IMVI melanoma
  TGI: 16 µM
OVCAR-4 ovarian
  TGI: 23.2 µM
U251 CNS
  TGI: 16.2 µM
CAKI-1 renal
  TGI: 21.4 µM
SK-MEL-2 melanoma
  TGI: 11.3 µM
TK-10 renal
  TGI: 25.9 µM
786-0 renal
  TGI: 12.3 µM
IGROV1 ovarian
  TGI: 24.5 µM
HT29 colon
  TGI: 6.22 µM
HOP-92 NSCLC
  TGI: 24.1 µM
NCI/ADR-RES ovarian
  TGI: 32.3 µM
MOLT-4 leukemia
  TGI: 11.7 µM
HL-60(TB) leukemia
  TGI: 8.13 µM

Reference: PubChem BioAssay (NCI)
